Data on one molecule can be found in patent publication US20080293699A1, “Inhibitors of thapsigargin-induced cell death” (priority 2007, published 2008).

Assay type in all cases: cell-based, rat
The test system of one assay is CSM14.1 cells. As to the kind of experiment: Annexin V staining viability assay (flow cytometry), thapsigargin-treated undifferentiated CSM14.1 cells. The settings on record: hit compounds 25 μM, TG 15 μM. On the procedure: Undifferentiated CSM14.1 cells were cultured as for FIG. 16. The next day, DMSO (a, b) (1% final volume), 100 μM Salubrinal (c, d) or 25 μM of hit compounds (1% final DMSO) was added. After two hrs, 15 μM TG was added to all wells except a and c. The plates were returned to culture for 24 hrs, then cells were recovered by trypsinization, transferred to 1.5 ml microcentrifuge tubes, and resuspended in 0.5 mL of Annexin V-binding solution. The percentage of annexin V-negative cells was determined by flow-cytometry (y-axis). Treatments and compounds were the same as in FIG. 16.
One method we have employed, for example, for confirming protection against TG-induced killing uses fluorochrome-conjugated annexin V staining with flow-cytometry analysis to evaluate the percentage cell viability by a method that is independent of the ATP content assay.
FIGS. 16 and 17 show the results of a secondary assay for evaluating the cytoprotective activity of the compounds. In FIG. 16, undifferentiated CSM14.1 cells were cultured at 10^4 cells per well of 24-well plates (Greiner Bio One). The next day, DMSO (a, b) (1% final volume), 100 μM Salubrinal (c, d) or 25 μM of hit compounds (1% final DMSO) was added. After two hrs, 15 μM TG was added to all wells except a and c. A conventional ATP assay was performed to measure survival rate. In FIG. 17 undifferentiated CSM14.1 cells were cultured at 10^4 cells per well of 24-well plates (Greiner Bio One). The next day, DMSO (a, b) (1% final volume), 100 μM Salubrinal (c, d) or 25 μM of hit compounds (1% final DMSO) was added. After two hrs, 15 μM TG was added to all wells except a and c. […] The percentage of annexin V-negative cells was determined by flow-cytometry (y-axis), using a FACSort instrument (Beckton-Dickinson). […]
7) The percentage of annexin V-negative cells was determined by flow-cytometry (y-axis), using a FACSort analysis facility in Burnham (Beckton & Dickinson)
On the technique in general: Flow cytometry measures light scatter and fluorescence of single cells or particles in a stream.

The subject of assay [1] is differentiated CSM14.1 cells. As to the kind of experiment: ATP content assay, thapsigargin-treated differentiated CSM14.1 cells. How it is done: Of the 26 compounds shown in Table 9, 16 were subsequently confirmed to protect differentiated CSM14.1 cells from TG-induced cell death. For these assays, CSM14.1 cells were differentiated by culture in 2% FBS for 7 days at non-permissive temperature of 39° C. […] CSM14.1 cells were plated at 1,500 cells per well in 96-well plates, and cultured overnight at 32° C. (permissive temperature; FIG. 14, left) or at 39° C. (non-permissive temperature, FIG. 14, right) for 7 days. […] ATP content was measured, and data were expressed as a percentage of control cells treated only with 1% DMSO (mean ±SD; n=3). Two percent FBS was used during differentiation, but all assays were performed in 10% FBS.
For PC12, cells were stimulated with 20 ng/ml NGF for five days; for C17.2, cells were stimulated with serum reduction, and 1% N2 incubation for three days; for CSM14.1, cells were cultured at 39° C. for 5-7 days.
CSM14.1 cells were plated at 1,500 cells per well in 96-well plates and cultured at 39° C. (non-permissive temperature) for 7 days. […] ATP content was measured and data were expressed as a percentage of control cells treated with only 1% DMSO.

The subject of another assay is CHOP. As to the kind of experiment: Thapsigargin-induced expression of CHOP. To be noted: listed as CID-2878746. How it is done: CSM 14.1 cells were cultured with DMSO or with 25 μM of hit compounds for two hours followed by treatment with thapsigargin (15 μM). Cell lysates were prepared and analyzed by SDS-PAGE/immunoblotting using antibodies specific for: c-Jun, phosphor-c-Jun (ser 73), eIF2a, phosphor-eIF2a (ser 51), p38 MAPK, phosphor-p38 MAPK (Thr180/Tyr182), ATF-6, CHOP and tubulin (loading control). ER stress-induced activation of C-Jun and p38 MAPK is suppressed by the 11 hit compounds.

As to `CCN(CC)c1ccc(C2Nc3ccccc3NC3=C2C(=O)CC(c2ccccc2)C3)cc1` (stereo not shown) [Compound 5962123, 6-(4-diethylaminophenyl)-9-phenyl-5,6,8,9,10,11-hexahydrobenzo[c][1,5]benzodiazepin-7-one], the “Protection against TG-induced cell death measured by annexin V staining” value in the assay on CSM14.1 cells is listed as “confirmed”. Also, the “Protection of differentiated CSM14.1 cells from thapsigargin-induced death” value in assay [1] (compound 25 μM with 10 μM thapsigargin, Salubrinal 100 μM) is given as “confirmed”. Further, the “Cytoprotective activity, CSM 14.1 diff (Result)” value in assay [1] (thapsigargin 15 μM, compound ≦25 μM) is given as “+ (+indicates >50% rescue of cell viability relative to untreated cells not exposed to thapsigargin at compound concentration of ≦25 μM)”. Besides, the “Thapsigargin-induced expression of CHOP” value in the assay on CHOP was “not inhibited”.
